Square brackets hold non-standard residues; d marks the D form. Peptide text beside a SMILES is read from it. αMePhe(2-F) = C[C@](N)(Cc1ccccc1F)C(=O)O; αMeY = C[C@](N)(Cc1ccc(O)cc1)C(=O)O; 4Pal = N[C@@H](Cc1ccncc1)C(=O)O; αMeL = CC(C)C[C@](C)(N)C(=O)O; Orn = NCCC[C@H](N)C(=O)O; Aib = CC(C)(N)C(=O)O
What was measured:
[1] = target: T1, gastric inhibitory peptide receptor (GIPR) (Homo sapiens, UniProt P48546); assay: cAMP pharmacological functional assay in presence of casein, hGIPR; assay type: cell-based; settings: HEK293 cells expressing hGIPR, 0.1% Casein, geometric mean; read-out: hGIPR cAMP Rel EC50 nM (SEM, n)
T1 sequence (P48546 22-466): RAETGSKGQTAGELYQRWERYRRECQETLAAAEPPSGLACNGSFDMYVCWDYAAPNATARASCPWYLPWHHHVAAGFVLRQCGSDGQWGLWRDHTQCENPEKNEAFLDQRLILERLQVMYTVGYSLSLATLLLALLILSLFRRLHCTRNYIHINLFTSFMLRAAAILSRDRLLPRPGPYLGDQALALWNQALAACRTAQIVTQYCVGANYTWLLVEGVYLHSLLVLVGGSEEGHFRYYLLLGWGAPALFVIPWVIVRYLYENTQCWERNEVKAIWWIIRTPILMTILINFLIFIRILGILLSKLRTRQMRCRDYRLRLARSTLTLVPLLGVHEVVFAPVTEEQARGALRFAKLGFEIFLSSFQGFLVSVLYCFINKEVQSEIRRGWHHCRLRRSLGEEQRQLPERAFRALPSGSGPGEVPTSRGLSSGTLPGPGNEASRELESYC

[2] = target: human GLP-1 receptor (GLP-1R) (Homo sapiens, UniProt P43220); assay: cAMP pharmacological functional assay in presence of casein, hGLP-1R; assay type: cell-based; settings: HEK293 cells expressing hGLP-1R, 0.1% Casein, geometric mean; read-out: hGLP1R cAMP Rel EC50 nM (SEM, n)
Chain of human GLP-1 receptor (GLP-1R) (P43220 24-463): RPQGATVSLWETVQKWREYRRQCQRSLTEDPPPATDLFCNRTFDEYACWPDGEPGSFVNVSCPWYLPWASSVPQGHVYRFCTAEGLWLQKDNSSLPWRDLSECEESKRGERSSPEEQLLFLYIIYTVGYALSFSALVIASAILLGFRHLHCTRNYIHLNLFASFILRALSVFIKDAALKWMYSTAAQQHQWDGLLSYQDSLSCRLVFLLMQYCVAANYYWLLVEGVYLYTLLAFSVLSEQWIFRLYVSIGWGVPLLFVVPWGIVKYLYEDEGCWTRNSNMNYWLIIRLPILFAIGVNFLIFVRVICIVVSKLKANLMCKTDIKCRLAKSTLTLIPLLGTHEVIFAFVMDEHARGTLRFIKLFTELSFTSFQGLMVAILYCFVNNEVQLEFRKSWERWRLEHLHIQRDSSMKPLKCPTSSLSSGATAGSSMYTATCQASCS

| Compound | EC50 [1] [nM] | EC50 [2] [nM] |
| --- | --- | --- |
| CC[C@H](C)[C@H](NC(=O)[C@H](CC(C)C)NC(=O)[C@H](Cc1ccc(O)cc1)NC(=O)[C@@H](CCC(=O)O)NC(=O)[C@@H](NC(=O)[C@H](Cc1ccccc1)NC(=O)[C@H](CCC(=O)O)NC(=O)C(C)(C)NC(=O)[C@H](CCC(N)=O)NC(=O)[C@H](C)NC(=O)[C@H](CCCCN)NC(=O)[C@H](CCC(=O)O)NC(=O)[C@H](CC(=O)O)NC(=O)[C@H](CC(C)C)NC(=O)[C@](C)(CC(C)C)NC(=O)[C@@H](NC(=O)[C@H](CO)NC(=O)[C@H](Cc1ccc(O)cc1)NC(=O)[C@H](CC(=O)O)NC(=O)[C@H](CO)NC(=O)[C@@H](NC(=O)[C@](C)(Cc1ccccc1F)NC(=O)[C@@H](NC(=O)CNC(=O)[C@H](CCC(=O)O)NC(=O)C(C)(C)NC(=O)[C@@H](N)Cc1ccc(O)cc1)[C@@H](C)O)[C@@H](C)O)[C@@H](C)CC)[C@@H](C)CC)C(=O)N[C@@H](CCC(=O)O)C(=O)NCC(=O)NCC(=O)N1CCC[C@H]1C(=O)N[C@@H](CO)C(=O)N[C@@H](CO)C(=O)NCC(=O)N[C@@H](C)C(=O)N1CCC[C@H]1C(=O)N1CCC[C@H]1C(=O)N1CCC[C@H]1C(=O)N[C@@H](CO)C(=O)N[C@@H](CS)C(N)=O [Example 278] (H-Y[Aib]EGT[αMePhe(2-F)]TSDYSI[αMeL]LDEKAQ[Aib]EFI[dE]YLIEGGPSSGAPPPSC-NH2; N-terminus assumed) | 0.293 | 0.123 |
| CC[C@H](C)[C@H](NC(=O)[C@H](CC(C)C)NC(=O)[C@H](Cc1ccc(O)cc1)NC(=O)[C@@H](CCC(=O)O)NC(=O)[C@@H](NC(=O)[C@H](Cc1ccccc1)NC(=O)[C@H](CCC(=O)O)NC(=O)C(C)(C)NC(=O)[C@H](CCC(N)=O)NC(=O)[C@H](C)NC(=O)[C@H](CCC(N)=O)NC(=O)[C@H](CCC(=O)O)NC(=O)[C@H](CC(=O)O)NC(=O)[C@H](CC(C)C)NC(=O)[C@](C)(CC(C)C)NC(=O)[C@@H](NC(=O)[C@H](CO)NC(=O)[C@H](Cc1ccc(O)cc1)NC(=O)[C@H](CC(=O)O)NC(=O)[C@H](CO)NC(=O)[C@@H](NC(=O)[C@](C)(Cc1ccccc1F)NC(=O)[C@@H](NC(=O)CNC(=O)[C@H](CCC(=O)O)NC(=O)C(C)(C)NC(=O)[C@@H](N)Cc1ccc(O)cc1)[C@@H](C)O)[C@@H](C)O)[C@@H](C)CC)[C@@H](C)CC)C(=O)N[C@@H](CCC(=O)O)C(=O)NCC(=O)NCC(=O)N1CCC[C@H]1C(=O)N[C@@H](CO)C(=O)N[C@@H](CO)C(=O)NCC(=O)N[C@@H](C)C(=O)N1CCC[C@H]1C(=O)N1CCC[C@H]1C(=O)N1CCC[C@H]1C(=O)N[C@@H](CO)C(=O)N[C@@H](CS)C(N)=O [Example 279] (H-Y[Aib]EGT[αMePhe(2-F)]TSDYSI[αMeL]LDEQAQ[Aib]EFI[dE]YLIEGGPSSGAPPPSC-NH2) | 0.564 | 0.11 |
| CC[C@H](C)[C@H](NC(=O)[C@H](CC(C)C)NC(=O)[C@H](Cc1ccc(O)cc1)NC(=O)[C@@H](CCC(=O)O)NC(=O)[C@@H](NC(=O)[C@H](Cc1ccccc1)NC(=O)[C@H](CCC(=O)O)NC(=O)C(C)(C)NC(=O)[C@H](CCC(N)=O)NC(=O)[C@H](C)NC(=O)[C@H](CCCCN)NC(=O)[C@H](CCCN)NC(=O)[C@H](CC(=O)O)NC(=O)[C@H](CC(C)C)NC(=O)[C@](C)(CC(C)C)NC(=O)[C@@H](NC(=O)[C@H](CO)NC(=O)[C@H](Cc1ccc(O)cc1)NC(=O)[C@H](CC(=O)O)NC(=O)[C@H](CO)NC(=O)[C@@H](NC(=O)[C@](C)(Cc1ccccc1F)NC(=O)[C@@H](NC(=O)CNC(=O)[C@H](CCC(=O)O)NC(=O)C(C)(C)NC(=O)[C@@H](N)Cc1ccc(O)cc1)[C@@H](C)O)[C@@H](C)O)[C@@H](C)CC)[C@@H](C)CC)C(=O)N[C@@H](CCC(=O)O)C(=O)NCC(=O)NCC(=O)N1CCC[C@H]1C(=O)N[C@@H](CO)C(=O)N[C@@H](CO)C(=O)NCC(=O)N[C@@H](C)C(=O)N1CCC[C@H]1C(=O)N1CCC[C@H]1C(=O)N1CCC[C@H]1C(=O)N[C@@H](CO)C(N)=O [Example 280] (H-Y[Aib]EGT[αMePhe(2-F)]TSDYSI[αMeL]LD[Orn]KAQ[Aib]EFI[dE]YLIEGGPSSGAPPPS-NH2) | 0.204 | 0.0767 |
| CC[C@H](C)[C@H](NC(=O)[C@H](CC(C)C)NC(=O)[C@H](Cc1ccc(O)cc1)NC(=O)[C@@H](CCC(=O)O)NC(=O)[C@@H](NC(=O)[C@H](Cc1ccccc1)NC(=O)[C@H](CCC(=O)O)NC(=O)C(C)(C)NC(=O)[C@H](CCC(N)=O)NC(=O)[C@H](C)NC(=O)[C@H](CCC(N)=O)NC(=O)[C@H](CCCN)NC(=O)[C@H](CC(=O)O)NC(=O)[C@H](CC(C)C)NC(=O)[C@](C)(CC(C)C)NC(=O)[C@@H](NC(=O)[C@H](CO)NC(=O)[C@H](Cc1ccc(O)cc1)NC(=O)[C@H](CC(=O)O)NC(=O)[C@H](CO)NC(=O)[C@@H](NC(=O)[C@](C)(Cc1ccccc1F)NC(=O)[C@@H](NC(=O)CNC(=O)[C@H](CCC(=O)O)NC(=O)C(C)(C)NC(=O)[C@@H](N)Cc1ccc(O)cc1)[C@@H](C)O)[C@@H](C)O)[C@@H](C)CC)[C@@H](C)CC)C(=O)N[C@@H](CCC(=O)O)C(=O)NCC(=O)NCC(=O)N1CCC[C@H]1C(=O)N[C@@H](CO)C(=O)N[C@@H](CO)C(=O)NCC(=O)N[C@@H](C)C(=O)N1CCC[C@H]1C(=O)N1CCC[C@H]1C(=O)N1CCC[C@H]1C(=O)N[C@@H](CO)C(N)=O [Example 281] (H-Y[Aib]EGT[αMePhe(2-F)]TSDYSI[αMeL]LD[Orn]QAQ[Aib]EFI[dE]YLIEGGPSSGAPPPS-NH2) | 0.166 | 0.16 |
| CC[C@H](C)[C@H](NC(=O)[C@H](CC(C)C)NC(=O)[C@H](Cc1ccc(O)cc1)NC(=O)[C@@H](CCC(=O)O)NC(=O)[C@@H](NC(=O)[C@H](Cc1ccccc1)NC(=O)[C@H](CCC(=O)O)NC(=O)C(C)(C)NC(=O)[C@H](CCC(N)=O)NC(=O)[C@H](C)NC(=O)[C@H](CCCCN)NC(=O)[C@H](CCCN)NC(=O)[C@H](CC(=O)O)NC(=O)[C@H](CC(C)C)NC(=O)[C@](C)(CC(C)C)NC(=O)[C@@H](NC(=O)[C@H](CO)NC(=O)[C@H](Cc1ccc(O)cc1)NC(=O)[C@H](CC(=O)O)NC(=O)[C@H](CO)NC(=O)[C@@H](NC(=O)[C@](C)(Cc1ccccc1F)NC(=O)[C@@H](NC(=O)CNC(=O)[C@H](CCC(=O)O)NC(=O)C(C)(C)NC(=O)[C@@H](N)Cc1ccc(O)cc1)[C@@H](C)O)[C@@H](C)O)[C@@H](C)CC)[C@@H](C)CC)C(=O)N[C@@H](CCC(=O)O)C(=O)NCC(=O)NCC(=O)N1CCC[C@H]1C(=O)N[C@@H](CO)C(=O)N[C@@H](CO)C(=O)NCC(=O)N[C@@H](C)C(=O)N1CCC[C@H]1C(=O)N1CCC[C@H]1C(=O)N1CCC[C@H]1C(=O)N[C@@H](CO)C(=O)N[C@@H](CS)C(N)=O [Example 282] (H-Y[Aib]EGT[αMePhe(2-F)]TSDYSI[αMeL]LD[Orn]KAQ[Aib]EFI[dE]YLIEGGPSSGAPPPSC-NH2) | 0.323 | 0.247 |
| CC[C@H](C)[C@H](NC(=O)[C@H](CC(C)C)NC(=O)[C@H](Cc1ccc(O)cc1)NC(=O)[C@@H](CCC(=O)O)NC(=O)[C@@H](NC(=O)[C@H](Cc1ccccc1)NC(=O)[C@H](CCC(=O)O)NC(=O)C(C)(C)NC(=O)[C@H](CCC(N)=O)NC(=O)[C@H](C)NC(=O)[C@H](CCC(N)=O)NC(=O)[C@H](CCCN)NC(=O)[C@H](CC(=O)O)NC(=O)[C@H](CC(C)C)NC(=O)[C@](C)(CC(C)C)NC(=O)[C@@H](NC(=O)[C@H](CO)NC(=O)[C@H](Cc1ccc(O)cc1)NC(=O)[C@H](CC(=O)O)NC(=O)[C@H](CO)NC(=O)[C@@H](NC(=O)[C@](C)(Cc1ccccc1F)NC(=O)[C@@H](NC(=O)CNC(=O)[C@H](CCC(=O)O)NC(=O)C(C)(C)NC(=O)[C@@H](N)Cc1ccc(O)cc1)[C@@H](C)O)[C@@H](C)O)[C@@H](C)CC)[C@@H](C)CC)C(=O)N[C@@H](CCC(=O)O)C(=O)NCC(=O)NCC(=O)N1CCC[C@H]1C(=O)N[C@@H](CO)C(=O)N[C@@H](CO)C(=O)NCC(=O)N[C@@H](C)C(=O)N1CCC[C@H]1C(=O)N1CCC[C@H]1C(=O)N1CCC[C@H]1C(=O)N[C@@H](CO)C(=O)N[C@@H](CS)C(N)=O [Example 283] (H-Y[Aib]EGT[αMePhe(2-F)]TSDYSI[αMeL]LD[Orn]QAQ[Aib]EFI[dE]YLIEGGPSSGAPPPSC-NH2) | 0.301 | 0.155 |
| CC[C@H](C)[C@H](NC(=O)[C@H](CC(C)C)NC(=O)[C@](C)(Cc1ccc(O)cc1)NC(=O)[C@@H](CCC(=O)O)NC(=O)[C@@H](NC(=O)[C@H](Cc1ccccc1)NC(=O)[C@H](CCC(=O)O)NC(=O)C(C)(C)NC(=O)[C@H](CCC(N)=O)NC(=O)[C@H](C)NC(=O)[C@H](CCCCN)NC(=O)[C@H](CCCN)NC(=O)[C@H](CC(=O)O)NC(=O)[C@H](CC(C)C)NC(=O)[C@](C)(CC(C)C)NC(=O)[C@@H](NC(=O)[C@H](CO)NC(=O)[C@H](Cc1ccncc1)NC(=O)[C@H](CC(=O)O)NC(=O)[C@H](CO)NC(=O)[C@@H](NC(=O)[C@](C)(Cc1ccccc1F)NC(=O)[C@@H](NC(=O)CNC(=O)[C@H](CCC(=O)O)NC(=O)C(C)(C)NC(=O)[C@@H](N)Cc1ccc(O)cc1)[C@@H](C)O)[C@@H](C)O)[C@@H](C)CC)[C@@H](C)CC)C(=O)N[C@@H](CCC(=O)O)C(=O)NCC(=O)NCC(=O)N1CCC[C@H]1C(=O)N[C@@H](CO)C(=O)N[C@@H](CO)C(=O)NCC(=O)N[C@@H](C)C(=O)N1CCC[C@H]1C(=O)N1CCC[C@H]1C(=O)N1CCC[C@H]1C(=O)N[C@@H](CO)C(N)=O [Example 284] (H-Y[Aib]EGT[αMePhe(2-F)]TSD[4Pal]SI[αMeL]LD[Orn]KAQ[Aib]EFI[dE][αMeY]LIEGGPSSGAPPPS-NH2) | 0.113 | 0.0462 |

— patent publication US12252524B2, “GIP/GLP1 co-agonist compounds” (Eli Lilly and Company, priority 2018, dated 2025)
